Laboratory results from patent US20090305995A1, “AGONISTS AND ANTAGONISTS OF THE SOMATOSTATIN RECEPTOR” (Novartis AG, priority 2004, published 2009).
Values after ≈ are worked out from the molar mass of the structure shown. Read-outs that look alike come from different tables or passages of the source.

Experiments:
[1] = target: T1, hsst4 receptor (Homo sapiens, UniProt P31391); experiment: radioligand-binding displacement assay ([125I]LTT-SRIF28), receptor expressed in CCL39 cells; conditions: hsst4; [125I]LTT-SRIF28 displacement
T1 construct: expressed in transfected cells; host or cells: Chinese hamster lung fibroblast (CCL39) cells
T1 sequence (P31391 whole entry): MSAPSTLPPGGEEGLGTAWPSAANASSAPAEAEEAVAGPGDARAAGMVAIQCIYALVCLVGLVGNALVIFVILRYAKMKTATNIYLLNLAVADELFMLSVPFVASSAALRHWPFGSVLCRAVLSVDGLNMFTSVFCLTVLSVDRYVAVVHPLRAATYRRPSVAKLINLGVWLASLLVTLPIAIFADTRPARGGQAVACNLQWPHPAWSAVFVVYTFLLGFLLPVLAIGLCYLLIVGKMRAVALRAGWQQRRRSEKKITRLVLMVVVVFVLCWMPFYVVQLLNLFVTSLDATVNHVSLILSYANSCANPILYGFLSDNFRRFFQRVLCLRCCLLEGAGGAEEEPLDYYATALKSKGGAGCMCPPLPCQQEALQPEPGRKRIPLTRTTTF
Method: The generated peptides are tested for their affinity to bind to human SRIF receptors expressed in Chinese hamster lung fibroblast (CCL39) cells. This is achieved in radioligand-binding assays, a displacement experiment in which the concentration of a substance is measured which is necessary for the replacement of 50% of a specifically bound radioligand ([^125I]LTT-SRIF28). Specific binding is measured as the total binding of receptor-specific radioligand minus the amount of radioligand bound in presence of unmarked SRIF-14 (100 nM, nonspecific binding).

[2] = high throughput solubility (HT-Solubility); assay type: physicochemical; conditions: for water solubility (in words): see FIG. 10
[3] = high throughput permeability (HT-Permeability, log Pe); assay type: physicochemical; conditions: PAMPA, Pe in cm/s
[4] = HT-logP o/w, high throughput assay based on artificial liquid membrane permeability; assay type: physicochemical
Source text: To be absorbed and transported by passive diffusion, drugs must be sufficiently lipophilic to penetrate the lipid cores of membranes, but not too lipophilic that they get retained and accumulated there. The lipophilictity of a compound is expressed by the octanol/water partition coefficient or distribution coefficient. A first approximation of substance polarity can either be given by computer assisted calculations giving Clog P values or by measurement of the partition coefficients in high-throughput assays (HT-log P o/w) (Faller et al., 2004; Wohnsland et al., 2001).
Octanol/water partition coefficients are measured in a high throughput assay based on artificial liquid membrane permeability. […] Still many approaches to calculate log P values are limited due to a lack of parameterization of certain fragments and fail with increasing molecular weight which implicates higher structural complexity. Similar problems and failures are observed in chromatographic determinations of log P: Peptides might undergo structural changes driven by interactions with the stationary phase. Decisive interactions between the stationary phase and the defolded analytes are therefore also based on the linear peptide sequence. For this reason measured HT-log P o/w values based on chromatographic assays employing stationary phases may lead to erroneous results.

[5] = pH 1, pH 1.0, read-out: HT-Solubility pH 1.0
[6] = pH 6.8, pH 6.8, read-out: HT-Solubility pH 6.8
[7] = pH 4, pH 4.0, read-out: HT-Permeability logPe pH 4.0 (converted)
[8] = octanol/water, read-out: HT LogP ohw
[9] = pH 6.8, pH 6.8, read-out: HT-Permeability logPe pH 6.8 (converted)
[10] = pH 8, pH 8.0, read-out: HT-Permeability logPe pH 8.0 (converted)

Row | SMILES | Kd [1] [nM] | solubility [2, 5] [µg/mL] | solubility [2, 6] [µg/mL] | Papp [3, 7] [×10⁻⁶ cm/s] | logP [4, 8] | other results
1 | CC(=O)N[C@H](CC(=O)N[C@H](Cc1c[nH]c2ccccc12)C(=O)N[C@@H](CCCCN)CC(=O)N[C@H](CC(=O)N(C)CCc1ccccc1)C(C)C)Cc1ccccc1 [Compound 25, Ac—(S)-β^3-HPhe-(R)-Trp-(S)-β^3-HLys-(R)-β^3-Leu-methyl-phenethyl-amide] | 115 | 78 (≈ 100 µM) | 15.6 (≈ 20 µM) | 0.1 | 3.3 | –
2 | C[C@H]1OC(=O)C[C@H]1NC(=O)C[C@H](CCCCN)NC(=O)[C@@H](Cc1cn(C)c2ccccc12)NC(=O)C[C@H](Cc1ccccc1)NC(=O)C12CC3CC(CC(C3)C1)C2 [Compound 20, Adamantoyl-(S)-β^3-HPhe-(R)-1-Me-Trp-(S)-β^3-HLys-(R)-4-amino-(R)-5-methyl-dihydro-furan-2-one] | 2950 | 15.6 (≈ 20 µM) | 15.6 (≈ 20 µM) | 0.1 | 2.9 | –
3 | C[C@H]1OC(=O)C[C@H]1NC(=O)C[C@H](CCCCN)NC(=O)[C@@H](Cc1c[nH]c2ccccc12)NC(=O)C[C@H](Cc1ccccc1)NC(=O)C1CCCCC1 [Compound 5, Cyclohexanoyl-(S)-β^3-HPhe-(R)-Trp-(S)-β^3-HLys-(R)-4-amino-(R)-5-methyl-dihydro-furan-2-one] | 1200 | 35.7 (≈ 49.9 µM) | 14.3 (≈ 20 µM) | 0.1 | 3.9 | –
4 | C[C@H]1OC(=O)C[C@H]1NC(=O)C[C@H](CCCCN)NC(=O)[C@@H](Cc1cn(C)c2ccccc12)NC(=O)C[C@H](Cc1ccccc1)NC(=O)CCc1ccccc1 [Compound 19, Dihydrocinnemoyl-(S)-β^3-HPhe-(R)-1-Me-Trp-(S)-β^3-HLys-(R)-4-amino-(R)-5-methyl-dihydro-furan-2-one] | 708 | 15 (≈ 20 µM) | 15 (≈ 20 µM) | 0.1 | 3.7 | –
5 | CCN(CC)C(=O)C[C@@H](NC(=O)C[C@H](CCCCN)NC(=O)[C@@H](Cc1c[nH]c2ccccc12)NC(=O)C[C@H](Cc1ccccc1)NC(C)=O)C(C)C [Compound 22, Ac—(S)-β^3-HPhe-(R)-Trp-(S)-β^3-HLys-(R)-β^3-Leu-diethyl-amide] | 166 | 14.4 (≈ 20.1 µM) | 14.4 (≈ 20.1 µM) | 0.1 | 2.3 | –
6 | CCN(CC)C(=O)C[C@@H](NC(=O)C[C@H](CCCCN)NC(=O)[C@@H](Cc1c[nH]c2ccccc12)NC(=O)C[C@H](Cc1ccccc1)NC(=O)CCc1ccccc1)C(C)C [Compound 24, Dihydrocinnemoyl-(S)-β^3-HPhe-(R)-Trp-(S)-β^3-HLys-(R)-β^3-Leu-diethyl-amide] | – | 16.2 (≈ 20 µM) | 16.2 (≈ 20 µM) | 0.1 | 4.1 | –
7 | CCCCCNC(=O)C[C@H](CCCCN)NC(=O)[C@@H](Cc1c[nH]c2ccccc12)NC(=O)C[C@H](Cc1ccccc1)NC(=O)CC [Compound 51, Propionyl-(S)-β^3-HPhe-(R)-Trp-(S)-β^3-HLys-pentyl-amide] | – | – | – | – | – | HT-Solubility pH 1.0 ([2]; pH 1.0): 0.1266 g 1-1; HT-Solubility pH 6.8 ([2]; pH 6.8): 0.0316 g 1-1; water solubility (in words) [2]: medium to good; Papp [3, 10]: 3.98 ×10⁻⁶ cm/s; HT LogP ohw ([4]; octanol/water): 3.4
8 | C[C@@H](O)[C@@H](CC(N)=O)NC(=O)C[C@H](CCCCN)NC(=O)[C@@H](Cc1c[nH]c2ccccc12)NC(=O)C[C@H](Cc1ccccc1)NC(=O)CCc1ccccc1 [Compound 15, Dihydrocinnemoyl-(S)-β^3-HPhe-(R)-Trp-(S)-β^3-HLys-(R), (R)—HThr-NH2] | – | 37.7 (≈ 50 µM) | 15.1 (≈ 20 µM) | 3.98 | 2.7 | Papp [3, 9]: 6.31 ×10⁻⁶ cm/s; Papp [3, 10]: 12.6 ×10⁻⁶ cm/s
9 | C[C@H]1OC(=O)C[C@H]1NC(=O)C[C@H](CCCCN)NC(=O)[C@@H](Cc1c[nH]c2ccccc12)NC(=O)C[C@H](Cc1ccccc1)NC(=O)c1ccccc1 [Compound 6, Benzoyl-(S)-β^3-HPhe-(R)-Trp-(S)-β^3-HLys-(R)-4-amino-(R)-5-methyl-dihydro-furan-2-one] | – | – | – | – | – | solubility ([2]; pH 1.0, read-out: HT-Solubility pH 1.0): 142 µg/mL (≈ 200 µM); solubility ([2]; pH 6.8, read-out: HT-Solubility pH 6.8): 14.2 µg/mL (≈ 20 µM); Papp ([3]; pH 4.0, read-out: HT-Permeability logPe pH 4.0 (converted)): 0.1 ×10⁻⁶ cm/s; logP ([4]; octanol/water; read-out: HT LogP ohw): 2.8
10 | CCCCCCCCC(=O)N[C@H](CC(=O)N[C@H](Cc1c[nH]c2ccccc12)C(=O)N[C@@H](CCCCN)CC(=O)N[C@@H]1CC(=O)O[C@@H]1C)Cc1ccccc1 [Compound 11] | – | 14.9 (≈ 20 µM) | 14.9 (≈ 20 µM) | 0.1 | 3.9 | –

More lines, main results first:

Row | Kd [1] [nM] | solubility [2, 5] [µg/mL] | solubility [2, 6] [µg/mL] | Papp [3, 7] [×10⁻⁶ cm/s] | logP [4, 8] | SMILES | other results
11 | 417 | 70.7 (≈ 100 µM) | 14.1 (≈ 19.9 µM) | 0.1 | 4 | NCCCC[C@@H](CC(=O)NC1CCCC1)NC(=O)[C@@H](Cc1c[nH]c2ccccc12)NC(=O)C[C@H](Cc1ccccc1)NC(=O)CCc1ccccc1 [Compound 32, Dihydrocinnemoyl-(S)-β^3-HPhe-(R)-Trp-(S)-β^3-HLys-cyclopentyl-amide] | –
12 | 14 | 147 (≈ 200 µM) | 14.7 (≈ 19.9 µM) | – | 5.5 | CCCCCN(C)C(=O)C[C@H](CCCCN)NC(=O)[C@@H](Cc1c[nH]c2ccccc12)N(Cc1ccccc1)C(=O)C[C@H](Cc1ccccc1)NC(=O)CC [Compound 66, Propionyl-(S)-β^3-HPhe-(R)—N-Benzyl-Trp-(S)-β^3-HLys-methyl-pentyl-amide] | water solubility (in words) [2]: does not allow for good water solubilities; Papp [3, 9]: 7.94 ×10⁻⁶ cm/s; Papp [3, 10]: 3.98 ×10⁻⁶ cm/s
13 | 62 | – | – | – | – | CC(=O)N[C@H](CC(=O)N[C@H](Cc1c[nH]c2ccccc12)C(=O)N[C@@H](CCCCN)CC(=O)NC1CCCC1)Cc1ccccc1 [Compound 30] | –
14 | – | 64.7 (≈ 100 µM) | 129 (≈ 200 µM) | 1 | 3.7 | CCCCN(C)C(=O)C[C@H](CCCCN)NC(=O)[C@@H](Cc1c[nH]c2ccccc12)NC(=O)C[C@H](Cc1ccccc1)NC(=O)CCC [Compound 42, Butyroyl-(S)-β^3-HPhe-(R)-Trp-(S)-β^3-HLys-methyl-butyl-amide] | water solubility (in words) [2]: highest solubility values; Papp [3, 9]: 2 ×10⁻⁶ cm/s; Papp [3, 10]: 5.01 ×10⁻⁶ cm/s
15 | – | 75.1 (≈ 100 µM) | 15 (≈ 20 µM) | 0.1 | 5.5 | CCCCCCN(C)C(=O)C[C@H](CCCCN)NC(=O)[C@@H](Cc1c[nH]c2ccccc12)N(Cc1ccccc1)C(=O)C[C@H](Cc1ccccc1)NC(=O)CC [Compound 68] | water solubility (in words) [2]: does not allow for good water solubilities
16 | – | 127 (≈ 200 µM) | 12.7 (≈ 20.1 µM) | 0.1 | 3.5 | CCCCNC(=O)C[C@H](CCCCN)NC(=O)[C@@H](Cc1c[nH]c2ccccc12)NC(=O)C[C@H](Cc1ccccc1)NC(=O)CCC [Compound 54, Butyroyl-(S)-β^3-HPhe-(R)-Trp-(S)-β^3-HLys-butyl-amide] | –
17 | – | 115 (≈ 200 µM) | 115 (≈ 200 µM) | 5.01 | 2.9 | NCCCC[C@@H](CC(=O)NC1CCCC1)NC(=O)[C@@H](Cc1c[nH]c2ccccc12)NC(=O)C[C@@H](N)Cc1ccccc1 [Compound 62, (S)-β^3-HPhe-(R)-Trp-(S)-β^3-HLys-cyclopentyl-amide] | Papp [3, 10]: 3.98 ×10⁻⁶ cm/s
18 | – | 66.1 (≈ 100 µM) | 13.2 (≈ 20 µM) | 0.1 | 3.3 | CC(=O)N[C@H](CC(=O)N(C)[C@H](Cc1c[nH]c2ccccc12)C(=O)N[C@@H](CCCCN)CC(=O)N[C@@H]1CC(=O)O[C@@H]1C)Cc1ccccc1 [Compound 40, Ac—(S)-β^3-HPhe-(R)—N-Me-Trp-(S)-β^3-HLys-(R)-4-amino-(R)-5-methyl-dihydro-furan-2-one] | –
19 | – | 60.5 (≈ 100 µM) | 60.5 (≈ 100 µM) | – | 3.5 | C[C@H]1OC(=O)C[C@H]1NC(=O)C[C@H](CCCCN)NC(=O)[C@@H](Cc1c[nH]c2ccccc12)NC(=O)C[C@@H](N)Cc1ccccc1 [Compound 28, (S)-β^3-HPhe-(R)-Trp-(S)-β^3-HLys-(R)-4-amino-(R)-5-methyl-dihydro-furan-2-one] | Papp [3, 10]: 3.16 ×10⁻⁶ cm/s
20 | – | 129 (≈ 200 µM) | 12.9 (≈ 20 µM) | 0.1 | 3 | CCCC(=O)N[C@H](CC(=O)N[C@H](Cc1c[nH]c2ccccc12)C(=O)N[C@@H](CCCCN)CC(=O)NC1CCCC1)Cc1ccccc1 [Compound 56, Butyroyl-(S)-β^3-HPhe-(R)-Trp-(S)-β^3-HLys-cyclopentyl-amide] | –
21 | – | 124 (≈ 200 µM) | 30.9 (≈ 49.9 µM) | 0.1 | 3.2 | CN[C@H](CC(=O)N[C@H](Cc1c[nH]c2ccccc12)C(=O)N[C@@H](CCCCN)CC(=O)N[C@@H]1CC(=O)O[C@@H]1C)Cc1ccccc1 [Compound 38, N-Me-(S)-β^3-HPhe-(R)-Trp-(S)-β^3-HLys-(R)-4-amino-(R)-5-methyl-dihydro-furan-2-one] | –
